Experimental data as given in ChEMBL document CHEMBL4138123, “Design, synthesis and biological evaluation of novel pyrazolochalcones as potential modulators of PI3K/Akt/mTOR pathway and inducers of apoptosis in breast cancer cells” (Eur J Med Chem, 2017).

Columns and labels:
Type in all cases: functional
[1] = system: HL-60(TB); assay: Cytotoxicity against human HL-60(TB) cells assessed as growth inhibition after 48 hrs by sulforhodamine B assay; conditions: HL-60, 48 h
[2] = system: HCC 2998; assay: Cytotoxicity against human HCC2998 cells assessed as growth inhibition after 48 hrs by sulforhodamine B assay; conditions: HCC 2998, 48 h
[3] = system: HCT-15; assay: Cytotoxicity against human HCT15 cells assessed as growth inhibition after 48 hrs by sulforhodamine B assay; conditions: HCT-15, 48 h
[4] = system: KM12; assay: Cytotoxicity against human KM12 cells assessed as growth inhibition after 48 hrs by sulforhodamine B assay; conditions: KM12, 48 h
[5] = system: SNB-19; assay: Cytotoxicity against human SNB19 cells assessed as growth inhibition after 48 hrs by sulforhodamine B assay; conditions: SNB-19, 48 h; for CC50: read-out: LC50 (the source's name)
[6] = system: UACC-257; assay: Cytotoxicity against human UACC257 cells assessed as growth inhibition after 48 hrs by sulforhodamine B assay; conditions: UACC-257, 48 h
[7] = system: SN12C; assay: Cytotoxicity against human SN12C cells assessed as growth inhibition after 48 hrs by sulforhodamine B assay
[8] = system: OVCAR-5; assay: Cytotoxicity against human OVCAR5 cells assessed as cell growth at 0.01 uM after 48 hrs by sulforhodamine B assay relative to control; conditions: OVCAR-5, 48 h, read-out: Activity
[9] = system: Malme-3M; assay: Cytotoxicity against human MALME-3M cells assessed as cell growth at 0.01 uM after 48 hrs by sulforhodamine B assay relative to control; conditions: read-out: Activity
[10] = system: NCI-H522; assay: Cytotoxicity against human NCI-H522 cells assessed as cell growth at 0.01 uM after 48 hrs by sulforhodamine B assay relative to control; conditions: NCI-H522, 48 h, read-out: Activity
[11] = system: RXF 393; assay: Cytotoxicity against human RXF393 cells assessed as cell growth at 0.01 uM after 48 hrs by sulforhodamine B assay relative to control; conditions: RXF 393, 48 h, read-out: Activity
[12] = system: Hs-578T; assay: Cytotoxicity against human Hs 578T cells assessed as cell growth at 0.01 uM after 48 hrs by sulforhodamine B assay relative to control; conditions: read-out: Activity
[13] = system: K562; assay: Cytotoxicity against human K562 cells assessed as cell growth at 0.1 uM after 48 hrs by sulforhodamine B assay relative to control; conditions: K562, 48 h, read-out: Activity
[14] = system: HCT-116; assay: Cytotoxicity against human HCT116 cells assessed as cell growth at 0.1 uM after 48 hrs by sulforhodamine B assay relative to control; conditions: HCT-116, 48 h, read-out: Activity
[15] = system: SF-268; assay: Cytotoxicity against human SF268 cells assessed as cell growth at 0.1 uM after 48 hrs by sulforhodamine B assay relative to control; conditions: SF-268, 48 h, read-out: Activity
[16] = system: ACHN; assay: Cytotoxicity against human ACHN cells assessed as cell growth at 0.1 uM after 48 hrs by sulforhodamine B assay relative to control; conditions: read-out: Activity
[17] = system: PC-3; assay: Cytotoxicity against human PC3 cells assessed as cell growth at 0.1 uM after 48 hrs by sulforhodamine B assay relative to control; conditions: PC-3, 48 h, read-out: Activity
[18] = system: KM12; assay: Cytotoxicity against human KM12 cells assessed as cell growth at 1 uM after 48 hrs by sulforhodamine B assay relative to control; conditions: KM12, 48 h, read-out: Activity
[19] = system: HL-60(TB); assay: Cytotoxicity against human HL-60(TB) cells assessed as cell growth at 10 uM after 48 hrs by sulforhodamine B assay relative to control; conditions: HL-60, 48 h, read-out: Activity
[20] = system: NCI-H322M; assay: Cytotoxicity against human NCI-H322M cells assessed as cell growth at 10 uM after 48 hrs by sulforhodamine B assay relative to control; conditions: read-out: Activity
[21] = system: UACC-62; assay: Cytotoxicity against human UACC62 cells assessed as cell growth at 10 uM after 48 hrs by sulforhodamine B assay relative to control; conditions: UACC-62, 48 h, read-out: Activity
[22] = system: OVCAR-8; assay: Cytotoxicity against human OVCAR8 cells assessed as cell growth at 10 uM after 48 hrs by sulforhodamine B assay relative to control; conditions: OVCAR-8, 48 h, read-out: Activity
[23] = system: A498; assay: Cytotoxicity against human A498 cells assessed as cell growth at 10 uM after 48 hrs by sulforhodamine B assay relative to control; conditions: A498, 48 h, read-out: Activity
[24] = system: DU-145; assay: Cytotoxicity against human DU145 cells assessed as cell growth at 10 uM after 48 hrs by sulforhodamine B assay relative to control; conditions: DU-145, 48 h, read-out: Activity
[25] = system: MDA-MB-231; assay: Cytotoxicity against human MDA-MB-231 cells assessed as cell growth at 10 uM after 48 hrs by sulforhodamine B assay relative to control; conditions: MDA-MB-231, 48 h, read-out: Activity
[26] = system: K562; assay: Cytotoxicity against human K562 cells assessed as cell growth at 100 uM after 48 hrs by sulforhodamine B assay relative to control; conditions: K562, 48 h, read-out: Activity
[27] = system: NCI-H226; assay: Cytotoxicity against human NCI-H226 cells assessed as cell growth at 100 uM after 48 hrs by sulforhodamine B assay relative to control; conditions: NCI-H226, 48 h, read-out: Activity
[28] = system: NCI-H23; assay: Cytotoxicity against human NCI-H23 cells assessed as cell growth at 100 uM after 48 hrs by sulforhodamine B assay relative to control; conditions: NCI-H23, 48 h, read-out: Activity
[29] = system: NCI-H522; assay: Cytotoxicity against human NCI-H522 cells assessed as cell growth at 100 uM after 48 hrs by sulforhodamine B assay relative to control; conditions: NCI-H522, 48 h, read-out: Activity
[30] = system: MDA-MB-435; assay: Cytotoxicity against human MDA-MB-435 cells assessed as cell growth at 100 uM after 48 hrs by sulforhodamine B assay relative to control; conditions: MDA-MB-435, 48 h, read-out: Activity
[31] = system: UACC-257; assay: Cytotoxicity against human UACC257 cells assessed as cell growth at 100 uM after 48 hrs by sulforhodamine B assay relative to control; conditions: UACC-257, 48 h, read-out: Activity
[32] = system: UACC-62; assay: Cytotoxicity against human UACC62 cells assessed as cell growth at 100 uM after 48 hrs by sulforhodamine B assay relative to control; conditions: UACC-62, 48 h, read-out: Activity
[33] = system: OVCAR-8; assay: Cytotoxicity against human OVCAR8 cells assessed as cell growth at 100 uM after 48 hrs by sulforhodamine B assay relative to control; conditions: OVCAR-8, 48 h, read-out: Activity
[34] = system: NCI/ADR-RES; assay: Cytotoxicity against human NCI/ADR-RES cells assessed as cell growth at 100 uM after 48 hrs by sulforhodamine B assay relative to control; conditions: read-out: Activity
[35] = system: A498; assay: Cytotoxicity against human A498 cells assessed as cell growth at 100 uM after 48 hrs by sulforhodamine B assay relative to control; conditions: A498, 48 h, read-out: Activity
[36] = system: Hs-578T; assay: Cytotoxicity against human Hs 578T cells assessed as cell growth at 100 uM after 48 hrs by sulforhodamine B assay relative to control; conditions: read-out: Activity

SMILES: COc1ccc(-c2cc(/C=C/C(=O)c3ccc(N)cc3)[nH]n2)cc1OC
- GI50 [1]: 3.45 µM
- LC50 [1]: > 100 µM
- TGI [1]: > 100 µM
- GI50 [2]: 2.02 µM
- LC50 [2]: 7.24 µM
- TGI [2]: 3.83 µM
- GI50 [3]: 1.7 µM
- LC50 [3]: 33 µM
- TGI [3]: 5.37 µM
- GI50 [4]: 1.68 µM
- LC50 [4]: 6.67 µM
- TGI [4]: 3.35 µM
- GI50 [5]: 4.36 µM
- TGI [5]: 18 µM
- CC50 [5]: 46.1 µM
- GI50 [6]: 6.46 µM
- LC50 [6]: 45.7 µM
- TGI [6]: 19.5 µM
- GI50 [7]: 3.53 µM
- LC50 [7]: 41.3 µM
- TGI [7]: 13.7 µM
- growth at 0.01 µM [8]: 91%
- growth at 0.01 µM [9]: 104%
- growth at 0.01 µM [10]: 92%
- growth at 0.01 µM [11]: 99%
- growth at 0.01 µM [12]: 98%
- growth at 0.1 µM [13]: 98%
- growth at 0.1 µM [14]: 101%
- growth at 0.1 µM [15]: 101%
- growth at 0.1 µM [16]: 93%
- growth at 0.1 µM [17]: 95%
- growth at 1 µM [18]: 88%
- growth at 10 µM [19]: 10%
- growth at 10 µM [20]: 24%
- growth at 10 µM [21]: 3%
- growth at 10 µM [22]: 2%
- growth at 10 µM [23]: -16%
- growth at 10 µM [24]: 15%
- growth at 10 µM [25]: 24%
- growth at 100 µM [26]: -3%
- growth at 100 µM [27]: -55%
- growth at 100 µM [28]: -51%
- growth at 100 µM [29]: -92%
- growth at 100 µM [30]: -72%
- growth at 100 µM [31]: -96%
- growth at 100 µM [32]: -86%
- growth at 100 µM [33]: -86%
- growth at 100 µM [34]: 2%
- growth at 100 µM [35]: -98%
- growth at 100 µM [36]: 4%

SMILES: COc1ccc(-c2cc(/C=C/C(=O)c3cc(OC)c(OC)c(OC)c3)[nH]n2)cc1OC
- GI50 [1]: 1.69 µM
- LC50 [1]: > 100 µM
- TGI [1]: 14.8 µM
- GI50 [2]: 1.9 µM
- LC50 [2]: 6.09 µM
- TGI [2]: 3.4 µM
- GI50 [3]: 1.19 µM
- LC50 [3]: > 100 µM
- TGI [3]: 3.85 µM
- GI50 [4]: 0.78 µM
- LC50 [4]: 5.68 µM
- TGI [4]: 2.27 µM
- GI50 [5]: 1.8 µM
- TGI [5]: 5.32 µM
- CC50 [5]: 27.1 µM
- GI50 [6]: 1.79 µM
- LC50 [6]: 8.05 µM
- TGI [6]: 3.8 µM
- GI50 [7]: 1.77 µM
- LC50 [7]: 8.26 µM
- TGI [7]: 3.83 µM
- growth at 0.01 µM [8]: 102%
- growth at 0.01 µM [9]: 98%
- growth at 0.01 µM [10]: 89%
- growth at 0.01 µM [11]: 103%
- growth at 0.01 µM [12]: 95%
- growth at 0.1 µM [13]: 94%
- growth at 0.1 µM [14]: 88%
- growth at 0.1 µM [15]: 93%
- growth at 0.1 µM [16]: 91%
- growth at 0.1 µM [17]: 93%
- growth at 1 µM [18]: 45%
- growth at 10 µM [19]: 2%
- growth at 10 µM [20]: -23%
- growth at 10 µM [21]: -61%
- growth at 10 µM [22]: 6%
- growth at 10 µM [23]: -28%
- growth at 10 µM [24]: -55%
- growth at 10 µM [25]: 11%
- growth at 100 µM [26]: -16%
- growth at 100 µM [27]: -43%
- growth at 100 µM [28]: -50%
- growth at 100 µM [29]: -90%
- growth at 100 µM [30]: -78%
- growth at 100 µM [31]: -94%
- growth at 100 µM [32]: -80%
- growth at 100 µM [33]: -84%
- growth at 100 µM [34]: -7%
- growth at 100 µM [35]: -91%
- growth at 100 µM [36]: -16%

SMILES: COc1ccc(C(=O)/C=C/c2cc(-c3cc(OC)c(OC)c(OC)c3)n[nH]2)cc1OC
- LC50 [1]: 80.2 µM
- TGI [1]: 4.18 µM
- LC50 [2]: 6.7 µM
- TGI [2]: 3.78 µM
- LC50 [3]: 6.4 µM
- TGI [3]: 2.85 µM
- LC50 [4]: 5.43 µM
- TGI [4]: 2.41 µM
- TGI [5]: 3.01 µM
- CC50 [5]: 6.36 µM
- LC50 [6]: 5.37 µM
- TGI [6]: 2.83 µM
- LC50 [7]: 6.37 µM
- TGI [7]: 3.13 µM
- growth at 0.01 µM [8]: 101%
- growth at 0.01 µM [9]: 95%
- growth at 0.01 µM [10]: 83%
- growth at 0.01 µM [11]: 100%
- growth at 0.01 µM [12]: 98%
- growth at 0.1 µM [13]: 92%
- growth at 0.1 µM [14]: 100%
- growth at 0.1 µM [15]: 89%
- growth at 0.1 µM [16]: 97%
- growth at 0.1 µM [17]: 95%
- growth at 1 µM [18]: 54%
- growth at 10 µM [19]: -41%
- growth at 10 µM [20]: -96%
- growth at 10 µM [21]: -92%
- growth at 10 µM [22]: -89%
- growth at 10 µM [23]: -87%
- growth at 10 µM [24]: -89%
- growth at 10 µM [25]: -82%
- growth at 100 µM [26]: -15%
- growth at 100 µM [27]: -49%
- growth at 100 µM [28]: -75%
- growth at 100 µM [29]: -97%
- growth at 100 µM [30]: -73%
- growth at 100 µM [31]: -97%
- growth at 100 µM [32]: -93%
- growth at 100 µM [33]: -96%
- growth at 100 µM [34]: -40%
- growth at 100 µM [35]: -96%
- growth at 100 µM [36]: -15%
